System: mTORC1 substrates P-S6K1(T389), P-S6(S235/6), P-4EBP1(T70) and mTORC2 substrate P-AKT(S473) in 786-O, U87MG and MDA-MB-453 cells
Assay: Immunoblotting of mTORC1 and mTORC2 biomarkers in tumor cells
Assay type: cell-based
Experimental: For standard assay of inhibitor effects on cellular biomarker expression, cells were plated at pre-determined density in 6-well or 12-well culture plates for overnight, treated with inhibitors for the indicated doses and times. Cells were lysed in NuPAGE-LDS lysis buffer (Invitrogen) and immunoblotted with antibodies including P-S6K1(T389), S6, P-4EBP1(T70), 4EBP1, P-GSK3(S21/9), GSK3, cyclin D1, Raptor, Rictor, P-ACL(S455), ACL, cleaved-PARP (Cell Signaling Technology); P-S6(S235/6), AKT(S473), AKT, Bim (Abcam-Epitomics); c-Myc (Santa Cruz); Mcl-1 (Affinity); CPT1A (Proteintech); β-actin and GAPDH (Bioworld).

CNC(=O)c1cccc(-c2ccc3c(N4C5CCC4COC5)nc(N4CCOC[C@@H]4C)nc3n2)c1 [MTI-31]
IC50 (read-out: concentration achieving 50% inhibition of mTORC1 and mTORC2 substrates, 786-O, U87MG and MDA-MB-453 cells, 6 h treatment): ≤ 120 nM
EC50 (several relevant tumor models (cells), read-out: EC50, inhibition of mTORC1/mTORC2 signaling): ≤ 120 nM

From paper PMC5341858, “Molecular regulation of apoptotic machinery and lipid metabolism by mTORC1/mTORC2 dual inhibitors in preclinical models of HER2+/PIK3CAmut breast cancer” (Oncotarget, 2016)
